Test results from US7427391B2, “Formulations for use in medical and diagnostic procedures” (priority 2001, dated 2008).

Assays:
Assay type in all cases: in vivo, human
[1] = tested on: stomach and small bowel; experiment: CT-PET measurement of stomach, jejunum and ileum diameters in oncologic patients (Example 5); conditions: 20 oncologic patients per agent
Experimental: CT-PET examinations of 60 oncologic patients were performed on a combined CT-PET tomograph. Three different oral contrast agents were randomly assigned to 20 patients each: barium, water, and a solution of 2.5% mannitol and 0.2% locust bean gum (LBG). To compare the bowel distension abilities of the three agents, representative diameters each of the stomach, the jejunum and the ileum were measured by two radiologists. PET images were evaluated qualitatively for areas of increased bowel FDG uptake based on a four-point scale as well as quantitatively by determination of standard uptake values (SUV). To assess the effect of the different contrast agents onto the tracer activity concentration phantom measurements were performed.
Table 3 Intestinal distension of the stomach, the jejunum, and the ileum induced by the contrast agents under investigation as well as SUV of the small intestine in the presence of the different contrast materials. Statistical significance was determined by unpaired Student's test based on 200 measurements each for the stomach, the jejunum, the ileum, and the SUV. Thus, a total of 800 measurements were performed for every contrast agent under investigation.

[2] = tested on: small bowel; experiment: MR (TrueFISP) measurement of small bowel loop diameters after 1500 ml oral contrast solution (Example 4); conditions: for Mean small bowel diameter / Mean small bowel diameter, AV (average of all six volunteer examinations): 1500 ml orally over 45 minutes; for Mean small bowel diameter: MR TrueFISP; for Mean small bowel diameter, AV (average of all six volunteer examinations): average of six volunteers; for Small bowel distension, comparison in words: six volunteers, paired t-test, p<0.01
Experimental: Six healthy volunteers (three female and three male; age range 21-28 years) without known contraindications to MR imaging were included in this study, which was conducted in accordance with all guidelines set forth by the approving institutional review board. Presence of gastrointestinal disease, previous abdominal surgery and symptoms of gastrointestinal disorders such as post-prandiol belching, nausea or early satiety were excluded. Each volunteer was examined on five different occasions. […] The LBG and Metamucil concentrations were chosen as high as possible within the confines of an unproblematic ingestion regarding viscosity and flavor, while choice of the mannitol concentration was based on previous studies. To assure homogenization of bowel activity, all exams were performed following 8 hour fasts. Prior to each exam, 1500 ml of the respective contrast solution were orally ingested over 45 minutes at a steady, evenly distributed rate. To ensure a consistent ingestion, volunteers were asked to drink 150 ml every four to five minutes. To enhance gastric emptying, 100 mg erythromycin (Abbott Pharmaceutics, Wiesbaden, Germany) were administered intravenously directly after the ingestion of the first 150 ml of the contrast solution. […] For signal reception a large ‘flex surface coils’ was used. Prior to the data acquisition neither spasmolytic agents nor paramagnetic contrast compounds were intravenously applied. […] Other sequence parameters included a field of view 35 cm, a slice thickness of 7 mm (25 slices) and an acquisition time of 24 seconds. Matrix size was 144×256, inter section gap amounted to 1 mm and the number of excitation was one. All 30 MR examinations were of diagnostic image quality. 1500 ml of each solution was ingested within the target time of 45 minutes. Images were quantitatively analyzed independently by two radiologists, who were blinded to the type of oral contrast employed. […] For the measurements bowel loops with maximal diameter were chosen. […] Subsequent analysis was based on mean small bowel diameters and their standard deviations. The effects of the analyzed oral contrast agents concerning small bowel distension were compared by a paired t-test. For the adaptation to multiple samples, a Bonferoni-correction was used.

[3] = tested on: small bowel; experiment: MR imaging of small bowel after oral contrast solutions (Examples 1-3); conditions: oral application, FIGS. 1-9
Experimental: Ten healthy volunteers with no history of gastrointestinal disorder underwent MR imaging following an eight hour fast. The examination was repeated on four different days using different osmotic substances in a randomized order: water, water spiked with mannitol (2.5%), Metamucil (0.7%) or locust bean gum (0.2%). Concentrations of the additives were chosen to avoid side-effects such as diarrhea.
Forty-five minutes prior to the examination, 50 mg of Erythromycin was applied intravenously to increase gastric emptying and the volunteers started ingesting the respective contrast substance. Coronal 2D measurements were performed in the prone patient position with a TRUFISP sequence (TR/TE/flip 3.2/1.6/70°) using 1.5 T scanner (Sonata, Siemens). The acquisition time amounted to 16 sec. Small bowel filling was quantified in two different ways: (1) determination of small bowel fluid by automatically measuring all pixels meeting the signal intensity of water, and (2) assessment of small bowel distension by manual measurement of 15 small bowel diameters and calculating an average value.

[4] = tested on: small bowel; experiment: Blinded qualitative rating of bowel distension on MR images by five radiologists (Example 4); conditions: six volunteers; consensus of five blinded radiologists
Description: For a qualitative assessment, MR images of all 5 examinations for each volunteer were presented as hardcopies in a randomized and blinded fashion to five radiologists. They were asked to rate the images regarding bowel distention in an ascending order for each volunteer. The qualitative assessment was done by consensus.

[5] = Incidence of diarrhea in patients given contrast agent; conditions: administered alone as a contrast agent
Experimental: Further, it has been discovered that the formulations disclosed herein have the unexpected benefit of reducing incidents of diarrhea among patients. For example, when mannitol alone is administered as a contrast agent, approximately 99% of patients experience diarrhea, sometimes in severe form. As a result, the patient's health and/or hydration may be affected, and the exam may be compromised. […] It is believed that this is due to the thickening properties of the stabilizing agent. Accordingly, due to the patient not having to use the bathroom during the procedure, for example, the medical or diagnostic procedure can be performed with less patient discomfort and with less interference. Additionally, patient compliance with the medical or diagnostic procedure is increased due to decreased complications with the procedure.

[6] = Side-effect questionnaire (diarrhea, nausea) 24 hours after MR examination (Example 4)
Description: Twenty-four hours after each MR examination, volunteers were asked by a standardized questionnaire based on a three-point scale (0=no side-effects, 1=mild side-effects, 2=severe side-effects) if either diarrhea or nausea have occurred in association with the contrast ingestion.

Row | SMILES | Intestinal distension of the ileum, Mean [1] | Intestinal distension of the jejunum, Mean [1] | Intestinal distension of the stomach, Mean [1] | Mean small bowel diameter ([2]; Volunteer #1) [mm] | Mean small bowel diameter ([2]; Volunteer #2) [mm] | Mean small bowel diameter ([2]; Volunteer #3) [mm] | Mean small bowel diameter ([2]; Volunteer #4) [mm] | Mean small bowel diameter ([2]; Volunteer #5) [mm] | Mean small bowel diameter ([2]; Volunteer #6) [mm] | Mean small bowel diameter, AV (average of all six volunteer examinations) [2] [mm] | Small bowel distension, comparison in words [2] | Diagnostic performance / lumen distention, in words [3] | Qualitative assessment of small bowel distension (rating) [4] | Patients experiencing diarrhea [5] | Diarrhea, in words ([6]; of the three evaluated substances) | Diarrhea as side effect, volunteers reporting ([6]; six volunteers, questionnaire 24 hours after MR examination)
1 | O [Water, water] | 1.4 | 1.6 | 6.1 | 13.6 | 15.0 | 12.4 | 14.6 | 12.6 | 11.8 | 13.3 | significantly less small bowel distension | does not achieve acceptable or diagnostic results | rated poorest | – | – | –
2 | OC[C@@H](O)[C@@H](O)[C@H](O)[C@H](O)CO [Mannitol, mannitol] | – | – | – | 23.7 | 22.9 | 19.2 | 19.3 | 22.9 | 19.6 | 21.3 | superior to Metamucil | – | in four volunteers mannitol was rated better | approximately 99% | consistently resulted in diarrhea | 2 of 6
